We go through four compounds from PMC12210912, “Pharmacologic properties and inhibitory activity of 6-azasteroids against Mycobacterium leprae in vivo and in vitro” (Microbiology Spectrum, 2025).

In data set [1] the test system is HepG2 cells. The conditions noted are these: cited from earlier work.
Data set [2] is described as follows: stability in human liver microsomes. Format: in vitro ADME. The conditions noted are these: both sexes, human liver microsomes, pH 7.4, 1 μM, HLM 0.5 mg/mL, 37°C, 1 h, mean of duplicates, read-out: HLM stability t1/2. The method, then: Experiments were performed by Pharmaron, Inc., China. […] Negative control samples were prepared by replacing the NADPH solution with ultrapure H2O. The negative controls were used to exclude the confounding variable of test compound instability. Experiments involving NADPH were carried out in duplicate. Negative controls were prepared in singlet. Aliquots (90 µL) were taken at 0, 15, 30, 45, and 60 min of incubation. The microsomal reaction in each aliquot was stopped by the addition of four volumes of cold acetonitrile containing internal standards (100 nM alprazolam, 200 nM imipramine, 200 nM labetalol, and 2 µM ketoprofen). The samples were centrifuged at 3,220 × g for 40 min, and an aliquot (90 µL) of the supernatant was mixed with 90 µL of ultrapure H2O. The resulting mixture was used for liquid chromatography–tandem mass spectrometry (LC-MS/MS) analysis (Shimadzu and SCIEX Triple Quad 4500). Peak areas were determined from extracted ion chromatograms. A slope, k, was determined by linear regression analysis of a plot of the natural logarithm of the remaining percentage of the parent drug versus incubation time. The in vitro t1/2 (min) was determined from the slope: in vitro t1/2=−(0.693/k) In vitro t1/2 (min, mean of duplicate determinations) was converted to in vitro intrinsic clearance (in vitro Clint, μL/(min·µg protein)) by means of the following equation : in vitro Clint=(0.693/t1/2)×(volume of incubation (μL)/amount of protein (μg))
(Liver microsomes are vesicles of endoplasmic reticulum, rich in cytochrome P450 enzymes.)

Data set [3] relates to M. leprae. Description: Shepard's mouse footpad model: bacilli count and molecular viability. Format: in vivo, Mycobacterium leprae. To be noted: Balb/c mice, 1 month, vehicle median 8.110 × 10^4. The method, then:
Animal experimentation was conducted under approval by the ILSL ethical committee ([…] 02/19). Balb/c female mice with 8-week-old were inoculated with 5 × 10^3 live M. leprae bacilli, strain Thai-53, in both hind footpads, as previously described for the Shepard's model ([25]). Eight groups were tested in the experiment: (i) M. leprae control group (n = 5) inoculated with M. leprae and no additional treatment; (ii) vehicle control group (n = 4) inoculated with M. leprae and treatment with vehicle of the drugs; (iii) regular rifampicin treatment, 10 mg/Kg dose; […] (v) compound 2 treatment (n = 4), 50 mg/kg dose; […] One month after inoculation, mice from the control group were euthanized and the hind footpad was collected to assess the establishment of the infection by bacillary enumeration. At that time point, vehicle or drug treatment was started for the remaining groups. All compounds were administrated by gavage, rifampicin was administered weekly, and the compounds were administered daily (excluding weekends) for 1 month (20 doses). Mice were euthanized 6 h after administration of the last dose, and blood was collected in heparin-coated tubes by cardiac puncture for blood enzyme evaluation and compound 5 measurement by LC/MS in the plasma. The infected hind footpads from each group of mice were excised, homogenized and bacilli enumerated in a 100 μL aliquot as previously described ([26]). The remaining homogenate was centrifuged at 12,000 × g for 15 min, the supernatant was discarded, and the pellet was suspended in 750 μL of RNA later solution (Thermo Fisher Scientific). The homogenized tissue pellet was incubated at 4°C for 16 h and stored at -80°C until determination of M. leprae viability was performed by RT-qPCR ([27], [28]). […] RNA and DNA extractions were performed as previously described ([10], [27]). RNA samples were treated with the Turbo DNA-free kit (Thermo Fisher Scientific), and 1,000 ng of DNAse-treated RNA was then used to synthesize the cDNA using the GoScript kit (Promega, USA).

The term IC50 denotes the concentration that gives 50% inhibition. With `C[C@]12CCC3C(CN(CCCF)C4CC(=O)CC[C@]34C)C1CCC2C(=O)Nc1cc(C(F)(F)F)ccc1C(F)(F)F` (some centres unmarked) [Compound 3], the IC50 in data set [1] was greater than 100 µM. The half-life at 1 µM in data set [2] is 0.75 h.
In the case of `C[C@]12CCC3C(CN(CCC(F)(F)F)C4CC(=O)CC[C@]34C)C1CCC2C(=O)Nc1cc(C(F)(F)F)ccc1C(F)(F)F` (some centres unmarked) [Compound 4], the IC50 in data set [1] was greater than 100 µM. Further, the half-life at 1 µM in data set [2] was 1.05 h.
Consider `CCCN1CC2C3CCC(C(=O)NC(c4ccc(F)cc4)c4ccc(F)cc4)[C@@]3(C)CCC2[C@@]2(C)CCC(=O)C=C12` (some centres unmarked) [Compound 6], for which the half-inhibitory concentration (IC50) in data set [1] was greater than 100 µM. Also, the half-life at 1 µM in data set [2] came out at 5.62 h.
Consider `CO[C@H]1/C=C/O[C@@]2(C)Oc3c(C)c(O)c4c(O)c(c(/C=N/N5CCN(C)CC5)c(O)c4c3C2=O)NC(=O)/C(C)=C\C=C\[C@H](C)[C@H](O)[C@@H](C)[C@@H](O)[C@@H](C)[C@H](OC(C)=O)[C@@H]1C` [rifampicin, reference compound], for which the “bacillary load in footpad, median” value was 0.438 × 10^4 in data set [3] (rifampicin 10 mg/kg weekly by gavage) and 7.890 × 10^4 in data set [3] (sub-inhibitory rifampicin 1 mg/kg weekly by gavage).
